# In ChEMBL document CHEMBL1201862, “PubChem BioAssay data set” (2004):
# Where “and” joins values, the source holds several entries; their conditions need not be identical. Equal entries are not always repeated.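 Where inhibition never reached the appropriate level, the endpoint shown equals the highest concentration tested. Otherwise, values were interpolated linearly from a five-concentration, 48-hour dose response in 96-well plates. GI50 marks 50% less growth.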 Calls of active or inactive are those of the source. Cut-off read from the data, not from the text of the source: active = GI50 up to about 1.1 µM and inactive = higher.
# Tests used:
# Experiment in all cases: NCI-60 cell line screen, 48 h
# ACHN = test system: ACHN
# RPMI-8226 = test system: RPMI-8226
# HCT-116 = test system: HCT-116
# UO-31 = test system: UO-31
# HL-60 = test system: HL-60
# LOX IMVI = test system: LOX IMVI
# HOP-62 = test system: HOP-62
# PC-3 = test system: PC-3
# RXF 393 = test system: RXF 393
# MCF7 = test system: MCF7
# NCI-H522 = test system: NCI-H522
# OVCAR-4 = test system: OVCAR-4
# A498 = test system: A498
# HCT-15 = test system: HCT-15
# NCI-H23 = test system: NCI-H23
# HT-29 = test system: HT-29
# CCRF-CEM = test system: CCRF-CEM
# U-251 = test system: U-251
# M14 = test system: M14
# DU-145 = test system: DU-145
# IGROV-1 = test system: IGROV-1
# SK-MEL-28 = test system: SK-MEL-28
# UACC-257 = test system: UACC-257
# SN12C = test system: SN12C
# Hs-578T = test system: Hs-578T
# SNB-75 = test system: SNB-75
# MDA-MB-435 = test system: MDA-MB-435
# A549 = test system: A549
# SR = test system: SR
# EKVX = test system: EKVX
# NCI-H460 = test system: NCI-H460
# OVCAR-8 = test system: OVCAR-8
# MOLT-4 = test system: MOLT-4
# MDA-N = test system: MDA-N
# T47D = test system: T47D
# BT-549 = test system: BT-549
# K562 = test system: K562
# COLO 205 = test system: COLO 205
# SF-268 = test system: SF-268
# NCI/ADR-RES = test system: NCI/ADR-RES
# SF-539 = test system: SF-539
# OVCAR-5 = test system: OVCAR-5
# UACC-62 = test system: UACC-62
# Malme-3M = test system: Malme-3M
# SK-OV-3 = test system: SK-OV-3
# MDA-MB-231 = test system: MDA-MB-231
# 786-0 = test system: 786-0
# TK-10 = test system: TK-10
# HOP-92 = test system: HOP-92
# KM12 = test system: KM12
# HCC 2998 = test system: HCC 2998
# SW-620 = test system: SW-620
# SNB-19 = test system: SNB-19
# NCI-H226 = test system: NCI-H226
# SK-MEL-2 = test system: SK-MEL-2
# OVCAR-3 = test system: OVCAR-3
# CAKI-1 = test system: CAKI-1
# SK-MEL-5 = test system: SK-MEL-5
# SF-295 = test system: SF-295
smiles,measurement,setting,value
CC(=O)O[C@H]1CC2C(C3CC[C@H](C(C)CCC(=O)O)[C@]31C)[C@H](OC(C)=O)C[C@@H]1CC3(CC[C@]21C)OOC1(CCC(C)CC1)OO3 (stereo partly specified),GI50,ACHN,2.59 µM (inactive) and 4.31 µM (inactive)
same,GI50,RPMI-8226,1.91 µM (inactive) and 2.05 µM (inactive)
same,GI50,HCT-116,2.16 µM (inactive) and 4.11 µM (inactive)
same,GI50,UO-31,2.61 µM (inactive)
same,GI50,HL-60,2.97 µM (inactive) and 2.37 µM (inactive)
same,GI50,LOX IMVI,2.15 µM (inactive) and 3.27 µM (inactive)
same,GI50,HOP-62,3.16 µM (inactive)
same,GI50,PC-3,5.15 µM (inactive) and 3.17 µM (inactive)
same,GI50,RXF 393,7.82 µM (inactive) and 12.9 µM (inactive)
same,GI50,MCF7,2.96 µM (inactive) and 4.86 µM (inactive)
same,GI50,NCI-H522,2.98 µM (inactive) and 1.61 µM (inactive)
same,GI50,OVCAR-4,2.56 µM (inactive) and 2.32 µM (inactive)
same,GI50,A498,15 µM (inactive) and 13 µM (inactive)
same,GI50,HCT-15,2.37 µM and 2.96 µM
same,GI50,NCI-H23,2.28 µM (inactive) and 4.31 µM (inactive)
same,GI50,HT-29,2.11 µM (inactive) and 1.81 µM (inactive)
same,GI50,CCRF-CEM,1.67 µM (inactive) and 2.03 µM (inactive)
same,GI50,U-251,1.76 µM (inactive) and 3.35 µM (inactive)
same,GI50,M14,3.49 µM (inactive) and 6.67 µM (inactive)
same,GI50,DU-145,3.32 µM (inactive) and 4.98 µM (inactive)
same,GI50,IGROV-1,2.01 µM (inactive)
same,GI50,SK-MEL-28,2.06 µM (inactive) and 1.66 µM (inactive)
same,GI50,UACC-257,6.92 µM (inactive) and 11.7 µM (inactive)
same,GI50,SN12C,2.72 µM (inactive) and 4.18 µM (inactive)
same,GI50,Hs-578T,3.4 µM (inactive) and 1.76 µM (inactive)
same,GI50,SNB-75,1.6 µM (inactive)
same,GI50,MDA-MB-435,2.62 µM (inactive) and 4.74 µM (inactive)
same,GI50,A549,1.55 µM (inactive) and 2.82 µM (inactive)
same,GI50,SR,1.55 µM (inactive)
same,GI50,EKVX,2.08 µM (inactive)
same,GI50,NCI-H460,2.33 µM (inactive) and 3.53 µM (inactive)
same,GI50,OVCAR-8,1.98 µM (inactive) and 2.85 µM (inactive)
same,GI50,MOLT-4,2.2 µM (inactive) and 1.51 µM (inactive)
same,GI50,MDA-N,3.77 µM (inactive) and 5.71 µM (inactive)
same,GI50,T47D,3.07 µM (inactive) and 2.31 µM (inactive)
same,GI50,BT-549,3.69 µM (inactive) and 2.74 µM (inactive)
same,GI50,K562,3.13 µM (inactive) and 3.9 µM (inactive)
same,GI50,COLO 205,2.53 µM (inactive)
Oc1cc(-c2ccc3ccccc3c2)nc2ncc(Cl)cc12,GI50,SF-268,4.74 µM (inactive)
same,GI50,ACHN,4.9 µM (inactive)
same,GI50,RPMI-8226,2.99 µM (inactive)
same,GI50,NCI/ADR-RES,6.32 µM (inactive)
same,GI50,UO-31,14.4 µM (inactive)
same,GI50,LOX IMVI,5.33 µM (inactive)
same,GI50,HOP-62,8.59 µM (inactive)
same,GI50,MCF7,2.44 µM (inactive)
same,GI50,NCI-H522,4.32 µM (inactive)
same,GI50,SF-539,5.62 µM (inactive)
same,GI50,OVCAR-4,6.43 µM (inactive)
same,GI50,A498,12.1 µM (inactive)
same,GI50,HCT-15,3.57 µM
same,GI50,NCI-H23,7.14 µM (inactive)
same,GI50,HT-29,5.66 µM (inactive)
same,GI50,OVCAR-5,64.9 µM (inactive)
same,GI50,CCRF-CEM,3.48 µM (inactive)
same,GI50,UACC-62,3.66 µM (inactive)
same,GI50,M14,8.17 µM (inactive)
same,GI50,Malme-3M,4.05 µM (inactive)
same,GI50,DU-145,11.4 µM (inactive)
same,GI50,IGROV-1,8.09 µM (inactive)
same,GI50,SK-MEL-28,40.9 µM (inactive)
same,GI50,UACC-257,9.06 µM (inactive)
same,GI50,SK-OV-3,4.73 µM (inactive)
same,GI50,SN12C,9.06 µM (inactive)
same,GI50,Hs-578T,5.27 µM (inactive)
same,GI50,MDA-MB-231,15.6 µM (inactive)
same,GI50,SNB-75,1.98 µM (inactive)
same,GI50,786-0,2.84 µM (inactive)
same,GI50,A549,6.92 µM (inactive)
same,GI50,TK-10,12.7 µM (inactive)
same,GI50,HOP-92,5.31 µM (inactive)
same,GI50,KM12,3.79 µM (inactive)
same,GI50,HCC 2998,10.2 µM (inactive)
same,GI50,SW-620,4.12 µM (inactive)
same,GI50,EKVX,14.5 µM (inactive)
same,GI50,OVCAR-8,6.15 µM (inactive)
same,GI50,SNB-19,9.31 µM (inactive)
same,GI50,MOLT-4,3.27 µM (inactive)
same,GI50,T47D,18.8 µM (inactive)
same,GI50,BT-549,37.8 µM (inactive)
same,GI50,K562,3.23 µM (inactive)
same,GI50,COLO 205,3.81 µM (inactive)
same,GI50,NCI-H226,12 µM (inactive)
same,GI50,SK-MEL-2,7.64 µM (inactive)
CCN(CC)CCNc1n[n+]([O-])c2cc([N+](=O)[O-])ccc2[n+]1[O-],GI50,SF-268,1.11 µM (active)
same,GI50,OVCAR-3,0.893 µM (active)
same,GI50,CAKI-1,0.337 µM (active)
same,GI50,HCT-116,483 nM (active)
same,GI50,NCI/ADR-RES,1.27 µM (inactive)
same,GI50,UO-31,2.94 µM (inactive)
same,GI50,LOX IMVI,0.601 µM (active)
same,GI50,HOP-62,0.661 µM (active)
same,GI50,RXF 393,1.52 µM (inactive)
same,GI50,OVCAR-4,1.31 µM (inactive)
same,GI50,A498,1.79 µM (inactive)
same,GI50,HT-29,0.374 µM (active)
same,GI50,OVCAR-5,1.92 µM (inactive)
same,GI50,U-251,1.08 µM (active)
same,GI50,M14,0.587 µM (active)
same,GI50,IGROV-1,0.191 µM (active)
same,GI50,SK-MEL-5,0.714 µM (active)
same,GI50,SK-MEL-28,6.32 µM (inactive)
same,GI50,SK-OV-3,1.05 µM (active)
same,GI50,Hs-578T,2.59 µM (inactive)
same,GI50,MDA-MB-435,1.38 µM (inactive)
same,GI50,A549,0.752 µM (active)
same,GI50,KM12,0.948 µM (active)
same,GI50,EKVX,1.98 µM (inactive)
same,GI50,OVCAR-8,0.538 µM (active)
same,GI50,SNB-19,1.4 µM (inactive)
same,GI50,MDA-N,863 nM (active)
same,GI50,BT-549,2.37 µM (inactive)
same,GI50,COLO 205,0.605 µM (active)
same,GI50,NCI-H226,1.7 µM (inactive)
CC(=O)OC1COC(N2c3ccccc3[C@@H]3CCc4c([nH]c5ccccc45)[C@@H]32)C(OC(C)=O)C1OC(C)=O.CC(=O)OC1COC(N2c3ccccc3[C@H]3CCc4c([nH]c5ccccc45)[C@H]32)C(OC(C)=O)C1OC(C)=O (stereo partly specified),GI50,SF-268,30.9 µM (inactive)
same,GI50,RPMI-8226,12 µM (inactive)
same,GI50,OVCAR-3,26.1 µM (inactive)
same,GI50,CAKI-1,27.7 µM (inactive)
same,GI50,HCT-116,14300 nM (inactive)
same,GI50,SF-295,21.6 µM (inactive)
same,GI50,UO-31,9.79 µM (inactive)
same,GI50,HOP-62,> 100 µM (inactive)
same,GI50,PC-3,16.2 µM (inactive)
same,GI50,NCI-H522,12.8 µM (inactive)
same,GI50,OVCAR-4,71.8 µM (inactive)
same,GI50,A498,17.7 µM (inactive)
same,GI50,HCT-15,47 µM
same,GI50,NCI-H23,57.8 µM (inactive)
same,GI50,HT-29,62.2 µM (inactive)
same,GI50,OVCAR-5,> 100 µM (inactive)
same,GI50,CCRF-CEM,26.5 µM (inactive)
same,GI50,U-251,80.7 µM (inactive)
same,GI50,UACC-62,60.5 µM (inactive)
same,GI50,M14,42.6 µM (inactive)
same,GI50,Malme-3M,> 100 µM (inactive)
same,GI50,DU-145,> 100 µM (inactive)
same,GI50,IGROV-1,2.76 µM (inactive)
same,GI50,SK-MEL-5,29.3 µM (inactive)
same,GI50,SK-MEL-28,> 100 µM (inactive)
same,GI50,UACC-257,72.1 µM (inactive)
same,GI50,SK-OV-3,44.9 µM (inactive)
same,GI50,SN12C,59.3 µM (inactive)
same,GI50,Hs-578T,21.4 µM (inactive)
same,GI50,MDA-MB-231,14 µM (inactive)
same,GI50,SNB-75,11.4 µM (inactive)
same,GI50,MDA-MB-435,51.8 µM (inactive)
same,GI50,A549,16.7 µM (inactive)
same,GI50,TK-10,> 100 µM (inactive)
same,GI50,HOP-92,57.7 µM (inactive)
same,GI50,SR,11.6 µM (inactive)
same,GI50,KM12,12.1 µM (inactive)
same,GI50,HCC 2998,40.1 µM (inactive)
same,GI50,SW-620,> 100 µM (inactive)
same,GI50,EKVX,19 µM (inactive)
same,GI50,NCI-H460,40.6 µM (inactive)
same,GI50,SNB-19,> 100 µM (inactive)
same,GI50,MOLT-4,5.79 µM (inactive)
same,GI50,MDA-N,65300 nM (inactive)
same,GI50,BT-549,56.9 µM (inactive)
same,GI50,COLO 205,19.2 µM (inactive)
same,GI50,SK-MEL-2,44.1 µM (inactive)
